Where two headings read alike, the source gives them in different places. Numbered stars: 1 amine (or outer) side, 2 acyl side, 3 side chain; on linkers, the order of the positions; unused ones are H or OH. Square brackets hold non-standard residues; d marks the D form. Side chains are listed from the residue outwards. Peptide text beside a SMILES is read from it. * marks the point of attachment. C20 diacid = O=C(O)CCCCCCCCCCCCCCCCCCC(=O)*; γGlu = O=C(O)[C@H](CCC(=O)[*:2])N[*:1]; AEEA = NCCOCCOCC(=O)O; Aib = CC(C)(N)C(=O)O
What was measured:
[1] = molecular target: SCTR (Homo sapiens, UniProt P47872); assay: hSCTR potency, cAMP accumulation in CHO-K1 cells stably overexpressing hSCTR; assay type: cell-based; set-up: alternatively Euroscreen ES-712-AF; FAST-0161L; host or cells: CHO-K1; settings: cAMP accumulation, CHO-K1 cells overexpressing hSCTR
Procedure, shortened: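 Thawed CHO-K1 cells carrying stable hSCTR are plated into casein/IBMX buffer (0.05%, 0.5 mM), dosed immediately for 30 min at room temperature, then cAMP is detected by TR-FRET. Purified peptides run as 11 three-fold dilutions in duplicate, and curves are fitted with variable slope.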

[2] = Fibril formation of crude library peptides (Thioflavin T); assay type: physicochemical; set-up: key: average ThT fluorescence emission at 480 nm (ex 450 nm), raw units; settings: Physical stability of peptides
Procedure, shortened: (§1)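 Turbidity is the absorbance at 600 nm, taken before heating. Fibril signal is the mean ThT emission at 480 nm (450 nm excitation), read every 10 min over 72 h at 40° C with 700 rpm shaking between reads. Peptides at 267 μM, pH 4.0 acetate or pH 7.0 phosphate buffer (50 mM), 4 μM ThT final.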

[3] = Turbidity of crude library peptides (absorbance at 600 nm); assay type: physicochemical; settings: Physical stability of peptides
Procedure, shortened: as §1

[4] = molecular target: GLP1R (Homo sapiens, UniProt P43220); assay: hGLP1R potency, cAMP accumulation in CHO-K1 cells stably overexpressing hGLP1R; assay type: cell-based; set-up: host or cells: CHO-K1; settings: for Selectivity: SCTR EC50/GLP1R EC50 ratio; for EC50: cAMP accumulation, CHO-K1 cells overexpressing hGLP1R; for SCTR EC50/GLP1R EC50 ratio: selectivity for hGLP1R over hSCTR, cAMP accumulation in CHO-K1 cells
Procedure, shortened: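 2000 cells/well, DPBS + 0.05% casein + 0.5 mM IBMX; 30 min RT stimulation; HTRF cAMP detection after 1 h. Purified: 3-fold ×11, n=2; crude: 10-fold ×5, n=1. EC50 by variable-slope fit.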

[5] = read-out: pEC50 hSCTR (converted)
[6] = read-out: pEC50 hGLPR1 (converted)
[7] = read-out: hSCTR pEC50 (converted)
[8] = read-out: hGLP1R pEC50 (converted)

Chain of SCTR (P47872 23-440): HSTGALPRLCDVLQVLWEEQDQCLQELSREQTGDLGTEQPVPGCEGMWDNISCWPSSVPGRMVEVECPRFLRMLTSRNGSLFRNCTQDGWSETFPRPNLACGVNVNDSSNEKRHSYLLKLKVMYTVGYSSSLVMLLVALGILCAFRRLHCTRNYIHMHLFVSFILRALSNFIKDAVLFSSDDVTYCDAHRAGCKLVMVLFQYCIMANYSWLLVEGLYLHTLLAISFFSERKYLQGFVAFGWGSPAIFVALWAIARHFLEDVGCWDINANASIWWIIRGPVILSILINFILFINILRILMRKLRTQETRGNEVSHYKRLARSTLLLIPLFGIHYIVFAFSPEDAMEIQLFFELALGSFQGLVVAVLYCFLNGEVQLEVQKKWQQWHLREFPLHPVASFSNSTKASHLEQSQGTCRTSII
Chain of GLP1R (P43220 24-463): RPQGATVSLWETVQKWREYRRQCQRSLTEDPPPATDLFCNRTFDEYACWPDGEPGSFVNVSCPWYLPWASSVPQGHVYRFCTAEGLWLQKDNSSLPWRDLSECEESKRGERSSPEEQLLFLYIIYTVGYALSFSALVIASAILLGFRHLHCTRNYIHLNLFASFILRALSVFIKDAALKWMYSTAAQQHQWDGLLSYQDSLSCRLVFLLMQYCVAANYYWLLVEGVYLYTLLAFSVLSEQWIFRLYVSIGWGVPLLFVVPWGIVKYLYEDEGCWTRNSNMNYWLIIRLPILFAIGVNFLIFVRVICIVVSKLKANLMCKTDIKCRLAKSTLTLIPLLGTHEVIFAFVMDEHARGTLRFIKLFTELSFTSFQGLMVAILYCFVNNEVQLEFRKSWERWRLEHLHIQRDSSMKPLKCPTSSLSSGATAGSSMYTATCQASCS

| SMILES | EC50 [1, 5] [nM] | Fibril formation [2] | Turbidity (pH 7) [3] | Selectivity [4] | EC50 [4, 6] [nM] | EC50 [1, 7] [nM] | EC50 [4, 8] [nM] | SCTR EC50/GLP1R EC50 ratio [4] |
| --- | --- | --- | --- | --- | --- | --- | --- | --- |
| CC(C)C[C@H](NC(=O)[C@H](CCC(=O)O)NC(=O)[C@H](CCCCNC(=O)COCCOCCNC(=O)COCCOCCNC(=O)CC[C@H](NC(=O)CCCCCCCCCCCCCCCCCCC(=O)O)C(=O)O)NC(=O)[C@H](CC(C)C)NC(=O)[C@@H](NC(=O)[C@H](CO)NC(=O)[C@@H](NC(=O)[C@H](CC(=O)O)NC(=O)[C@H](CO)NC(=O)[C@@H](NC(=O)[C@H](Cc1ccccc1)NC(=O)[C@@H](NC(=O)CNC(=O)[C@H](CCC(=O)O)NC(=O)C(C)(C)NC(=O)[C@@H](N)Cc1c[nH]cn1)[C@@H](C)O)[C@@H](C)O)C(C)C)C(C)C)C(=O)N[C@@H](C)C(=O)N[C@@H](C)C(=O)N[C@@H](CCC(N)=O)C(=O)N[C@@H](CCC(N)=O)C(=O)N[C@@H](CCCNC(=N)N)C(=O)N[C@@H](Cc1ccccc1)C(=O)N[C@@H](CC(C)C)C(=O)N[C@@H](CCC(=O)O)C(=O)N[C@@H](Cc1c[nH]cn1)C(=O)N[C@@H](CC(C)C)C(=O)N[C@H](C(N)=O)C(C)C [compound 33] (H-H[Aib]EGTFTSDVSVLK([AEEA-AEEA-γGlu-C20 diacid])ELAAQQRFLEHLV-NH2) | 316 | 45087 | 0.08 | 5737 | 0.0631 | – | – | – |
| CC(C)C[C@H](NC(=O)[C@H](Cc1ccccc1)NC(=O)[C@H](CCCNC(=N)N)NC(=O)[C@H](CCC(N)=O)NC(=O)[C@@H](NC(=O)[C@H](C)NC(=O)[C@H](C)NC(=O)C(C)(C)NC(=O)[C@H](CCC(=O)O)NC(=O)[C@H](CCCCNC(=O)COCCOCCNC(=O)COCCOCCNC(=O)CC[C@H](NC(=O)CCCCCCCCCCCCCCCCCCC(=O)O)C(=O)O)NC(=O)[C@H](CC(C)C)NC(=O)[C@H](Cc1ccccc1)NC(=O)[C@H](CO)NC(=O)[C@@H](NC(=O)[C@H](CC(=O)O)NC(=O)[C@H](CO)NC(=O)[C@@H](NC(=O)[C@H](Cc1ccccc1)NC(=O)[C@@H](NC(=O)CNC(=O)[C@H](CCC(=O)O)NC(=O)C(C)(C)NC(=O)[C@@H](N)Cc1c[nH]cn1)[C@@H](C)O)[C@@H](C)O)C(C)C)[C@@H](C)O)C(=O)N[C@@H](CCC(=O)O)C(=O)N[C@@H](Cc1c[nH]cn1)C(=O)N[C@@H](CC(C)C)C(=O)N[C@H](C(N)=O)C(C)C [compound 13] (H-H[Aib]EGTFTSDVSFLK([AEEA-AEEA-γGlu-C20 diacid])E[Aib]AATQRFLEHLV-NH2) | 316 | 16121 | 0.08 | 11130 | 0.0316 | – | – | – |
| CC(C)C[C@H](NC(=O)[C@H](Cc1ccccc1)NC(=O)[C@H](CCCNC(=N)N)NC(=O)[C@H](CCC(N)=O)NC(=O)[C@H](CO)NC(=O)[C@H](C)NC(=O)[C@H](C)NC(=O)[C@H](Cc1ccccc1)NC(=O)[C@H](CCC(=O)O)NC(=O)[C@H](CCCCNC(=O)COCCOCCNC(=O)COCCOCCNC(=O)CC[C@H](NC(=O)CCCCCCCCCCCCCCCCCCC(=O)O)C(=O)O)NC(=O)[C@H](CC(C)C)NC(=O)[C@H](Cc1ccc(O)cc1)NC(=O)[C@H](CO)NC(=O)[C@@H](NC(=O)[C@H](CC(=O)O)NC(=O)[C@H](CO)NC(=O)[C@@H](NC(=O)[C@H](Cc1ccccc1)NC(=O)[C@@H](NC(=O)CNC(=O)[C@H](CCC(=O)O)NC(=O)C(C)(C)NC(=O)[C@@H](N)Cc1c[nH]cn1)[C@@H](C)O)[C@@H](C)O)C(C)C)C(=O)N[C@@H](CCC(=O)O)C(=O)N[C@@H](Cc1c[nH]cn1)C(=O)N[C@@H](CC(C)C)C(=O)N[C@H](C(N)=O)C(C)C [compound 66] (H-H[Aib]EGTFTSDVSYLK([AEEA-AEEA-γGlu-C20 diacid])EFAASQRFLEHLV-NH2) | 3160 | 201306 | 0.08 | 81752 | 0.0398 | – | – | – |

Results, then the compound that gave them:

| EC50 [1, 5] [nM] | Fibril formation [2] | Turbidity (pH 7) [3] | Selectivity [4] | EC50 [4, 6] [nM] | EC50 [1, 7] [nM] | EC50 [4, 8] [nM] | SCTR EC50/GLP1R EC50 ratio [4] | SMILES |
| --- | --- | --- | --- | --- | --- | --- | --- | --- |
| – | 3061 | 0.08 | – | – | 2510 | 0.00794 | 303145 | CC(C)C[C@H](NC(=O)[C@H](Cc1ccccc1)NC(=O)[C@H](CCCNC(=N)N)NC(=O)[C@H](CCC(N)=O)NC(=O)[C@H](CO)NC(=O)C(C)(C)NC(=O)[C@H](C)NC(=O)[C@H](CCC(=O)O)NC(=O)[C@H](CCC(=O)O)NC(=O)[C@H](CCCCNC(=O)COCCOCCNC(=O)COCCOCCNC(=O)CC[C@H](NC(=O)CCCCCCCCCCCCCCCCCCC(=O)O)C(=O)O)NC(=O)[C@H](CC(C)C)NC(=O)[C@H](Cc1ccc(O)cc1)NC(=O)[C@H](CO)NC(=O)[C@@H](NC(=O)[C@H](CC(=O)O)NC(=O)[C@H](CO)NC(=O)[C@@H](NC(=O)[C@H](Cc1ccccc1)NC(=O)[C@@H](NC(=O)CNC(=O)[C@H](CCC(=O)O)NC(=O)C(C)(C)NC(=O)[C@@H](N)Cc1c[nH]cn1)[C@@H](C)O)[C@@H](C)O)C(C)C)C(=O)N[C@@H](CCC(=O)O)C(=O)N[C@@H](Cc1c[nH]cn1)C(=O)N[C@@H](CC(C)C)C(=O)N[C@H](C(N)=O)C(C)C [compound 134] (H-H[Aib]EGTFTSDVSYLK([AEEA-AEEA-γGlu-C20 diacid])EEA[Aib]SQRFLEHLV-NH2) |
| – | 2891 | 0.08 | – | – | 63.1 | 0.00794 | 8838 | CC(C)C[C@H](NC(=O)[C@H](Cc1ccccc1)NC(=O)[C@H](CCCNC(=N)N)NC(=O)[C@H](CCC(N)=O)NC(=O)[C@H](CC(C)C)NC(=O)C(C)(C)NC(=O)[C@H](C)NC(=O)[C@H](CCC(=O)O)NC(=O)[C@H](CCC(=O)O)NC(=O)[C@H](CCCCNC(=O)COCCOCCNC(=O)COCCOCCNC(=O)CC[C@H](NC(=O)CCCCCCCCCCCCCCCCCCC(=O)O)C(=O)O)NC(=O)[C@H](CC(C)C)NC(=O)[C@H](Cc1c[nH]cn1)NC(=O)[C@H](CO)NC(=O)[C@@H](NC(=O)[C@H](CC(=O)O)NC(=O)[C@H](CO)NC(=O)[C@@H](NC(=O)[C@H](Cc1ccccc1)NC(=O)[C@@H](NC(=O)CNC(=O)[C@H](CCC(=O)O)NC(=O)C(C)(C)NC(=O)[C@@H](N)Cc1c[nH]cn1)[C@@H](C)O)[C@@H](C)O)C(C)C)C(=O)N[C@@H](CCC(=O)O)C(=O)N[C@@H](Cc1c[nH]cn1)C(=O)N[C@@H](CC(C)C)C(=O)N[C@H](C(N)=O)C(C)C [compound 145] (H-H[Aib]EGTFTSDVSHLK([AEEA-AEEA-γGlu-C20 diacid])EEA[Aib]LQRFLEHLV-NH2) |
| – | 4038 | 0.08 | – | – | 10 | 0.00631 | 1693 | CC(C)C[C@H](NC(=O)[C@H](Cc1ccccc1)NC(=O)[C@H](CCCNC(=N)N)NC(=O)[C@H](CCC(N)=O)NC(=O)[C@H](CC(C)C)NC(=O)C(C)(C)NC(=O)[C@H](C)NC(=O)[C@H](CCC(=O)O)NC(=O)[C@H](CCC(=O)O)NC(=O)[C@H](CCCCNC(=O)COCCOCCNC(=O)COCCOCCNC(=O)CC[C@H](NC(=O)CCCCCCCCCCCCCCCCCCC(=O)O)C(=O)O)NC(=O)[C@H](CC(C)C)NC(=O)[C@@H](NC(=O)[C@H](CO)NC(=O)[C@@H](NC(=O)[C@H](CC(=O)O)NC(=O)[C@H](CO)NC(=O)[C@@H](NC(=O)[C@H](Cc1ccccc1)NC(=O)[C@@H](NC(=O)CNC(=O)[C@H](CCC(=O)O)NC(=O)C(C)(C)NC(=O)[C@@H](N)Cc1c[nH]cn1)[C@@H](C)O)[C@@H](C)O)C(C)C)[C@@H](C)O)C(=O)N[C@@H](CCC(=O)O)C(=O)N[C@@H](Cc1c[nH]cn1)C(=O)N[C@@H](CC(C)C)C(=O)N[C@H](C(N)=O)C(C)C [compound 165] (H-H[Aib]EGTFTSDVSTLK([AEEA-AEEA-γGlu-C20 diacid])EEA[Aib]LQRFLEHLV-NH2) |
| – | 5733 | 0.08 | – | – | 794 | 0.01 | 88736 | CC(C)C[C@H](NC(=O)[C@H](Cc1ccccc1)NC(=O)[C@H](CCCNC(=N)N)NC(=O)[C@H](CCC(N)=O)NC(=O)[C@H](CC(C)C)NC(=O)C(C)(C)NC(=O)[C@H](C)NC(=O)[C@H](CCC(=O)O)NC(=O)[C@H](CCC(=O)O)NC(=O)[C@H](Cc1ccc(O)cc1)NC(=O)[C@H](CC(C)C)NC(=O)[C@H](Cc1ccc(O)cc1)NC(=O)[C@H](CO)NC(=O)[C@@H](NC(=O)[C@H](CC(=O)O)NC(=O)[C@H](CO)NC(=O)[C@@H](NC(=O)[C@H](Cc1ccccc1)NC(=O)[C@@H](NC(=O)CNC(=O)[C@H](CCC(=O)O)NC(=O)C(C)(C)NC(=O)[C@@H](N)Cc1c[nH]cn1)[C@@H](C)O)[C@@H](C)O)C(C)C)C(=O)N[C@@H](CCC(=O)O)C(=O)N[C@@H](CCCCNC(=O)COCCOCCNC(=O)COCCOCCNC(=O)CC[C@H](NC(=O)CCCCCCCCCCCCCCCCCCC(=O)O)C(=O)O)C(=O)N[C@@H](CC(C)C)C(=O)N[C@H](C(N)=O)C(C)C [compound 143] (H-H[Aib]EGTFTSDVSYLYEEA[Aib]LQRFLEK([AEEA-AEEA-γGlu-C20 diacid])LV-NH2) |

— patent publication US20260201008A1, “SECRETIN-DERIVED GLP1R SELECTIVE AGONISTS” (GUBRA A/S, priority 2023, published 2026)
